From paper PMC9028180, “Anti-Inflammatory Activity of Monosubstituted Xestoquinone Analogues from the Marine Sponge Neopetrosia compacta” (Antioxidants, 2022)
Where two headings read alike, the source gives them in different places. Values belong to the molecule of their own block, whether it stands above or below them.

Experiments:
Nqo1 = test: qRT-PCR differential gene expression, Nqo1; type: cell-based, murine; details: 10 μM, 12 h, LPS-stimulated RAW 264.7
Method: (§1) RAW 264.7 cells (passage number ≤ 6) were seeded in a 6-well microplate at a density of 2.5 × 10^5 cells/well and incubated for 24 h at 37 °C with 5% CO2 prior to treatment. Cells were treated with 10 μM compound or 0.5% DMSO in duplicate and incubated for 1 h before stimulation with LPS (1 µg/mL). At 12 h post-treatment, total RNA was extracted with Qiagen RNeasy extraction kit (Germantown, MD, USA) according to manufacturer’s protocol. RNA was reverse-transcribed from 2 µg of total RNA using SuperScript IV Reverse Transcriptase (Invitrogen, Waltham, MA, USA), 1 mM dNTP, and Oligo (dT)12–18 primer (0.5 µg/mL, Invitrogen). Quantitative real time-PCR (qRT-PCR) was performed in ABI 7500 Fast Real-Time PCR (Applied Biosystems, Bedford, MA, USA). qRT-PCR was performed as a 25 µL total reaction mixture, composed of 1X TaqMan® universal master mix, 1X TaqMan® gene expression assay mix, 2 µL of cDNA, and 9.25 µL RNase-free sterile water. Analyses were carried out using probes for Il1b (Assay ID Mm00434228_m1), Nos2 (Mm00440502_m1), and Nqo1 (Mm01253561_m1). The thermocycler program was designed as follows: 50 °C for 2 min, 95 °C for 10 min, and 40 cycles of 95 °C for 15 s and 60 °C for 1 min. Mouse Gapdh (Mm99999915_g1) was used as the internal control for normalization. The measurement of gene expression is reported in cycles to threshold (Ct) PCR, whose value represents the cycle number at which the amount of amplified DNA of the target gene reached the threshold level. The relative gene expression was analyzed using the comparative Ct method to compare the Ct value of the target gene to the internal control in a treatment sample. Statistical analysis on the relative gene expression was carried out using one-way ANOVA and Tukey’s multiple comparison test with p-value < 0.05. Analysis was done in two independent experiments with three technical replicates each.

Il1b = test: qRT-PCR differential gene expression, Il1b; type: cell-based, murine; details: 10 μM, 12 h, LPS-stimulated RAW 264.7; relative to LPS-stimulated solvent control
Method: as §1

[1] = system: NO production in LPS-stimulated RAW 264.7 murine macrophage cells; test: Nitric oxide production assay (Griess) in LPS-stimulated RAW 264.7 cells; type: cell-based
Method: The anti-inflammatory activity of the extracts and compounds was assessed according to the procedure of Ratnayake et al. (2013). RAW 264.7 murine macrophage cells (passage number ≤ 6) were grown in Dulbecco’s Modified Eagle’s Medium (DMEM) supplemented with 10% fetal bovine serum (FBS) and 1% antibiotic-antimycotic solution. At 24 h post-incubation, the cells (200,000 cells/mL) were treated with extracts (50 and 5 µg/mL) or pure compounds in triplicate. For pure compounds, a 20 mM stock was prepared in DMSO and serially diluted to generate eight concentrations ranging from 0.032–100 µM. DMSO (0.5%) served as the solvent control. Dexamethasone (50 µM) and tBHQ (10 µM) served as positive controls. LPS (1 µg/mL) was added to each well after 1 h of extract or compound pre-treatment. A reverse treatment was also done for compounds, where cells were first pre-treated with LPS (1 µg/mL) prior to the addition of the compound.
After 24 h of incubation, NO production was assessed by measuring the nitrite concentration using the Griess Reagent System (Promega, Madison, WI, USA) according to the manufacturer’s protocol. Results were presented as %NO production relative to LPS-stimulated solvent control.

[2] = system: LPS-stimulated RAW 264.7 murine macrophage cells; test: Tetrazolium-based (MTT) cell viability assay; details: for CC50: Mus musculus, RAW264.7, 24 h; for decrease in cytotoxicity relative to 1: from cell viability IC50, compound pre-treatment + LPS; for IC50: read-out: Cell Viability (IC50)
Method: MTT solution (5 mg/mL in PBS, 15 µL) was added to the original assay plate, and the reaction was terminated with the addition of acidified sodium dodecyl sulfate (SDS) solution after 2 h. Absorbance was measured at 570 nm. […] The concentration-dependent response curve for cell viability of the pure compounds was generated, and the IC50 was determined using a non-linear regression, inhibitor vs. normalized response—variable slope analysis. Samples were tested in at least one independent experiment performed in triplicate.
Statistical comparison of the cell viability IC50 of 2–6 relative to xestoquinone (1) was analyzed using one-way ANOVA and Tukey’s post-hoc test at p-value < 0.05. Comparison of the IC50 values from NO production and cytotoxicity assessment for each of the compounds were analyzed using a one-tailed unpaired t-test at p-value < 0.05.

[3] = system: Nrf2-luciferase reporter MCF7 stable cells; test: Nrf2-ARE activation luciferase reporter assay; type: cell-based
Method: Nrf2-luciferase reporter MCF7 stable cells (Signosis, Inc.) were grown in high glucose DMEM (Hyclone, Logan, UT, USA) supplemented with 10% FBS, 1% antibiotic-antimycotic solution, and 75 µg/mL geneticin. A 100-µL cell suspension was plated with a seeding density of 20,000 cells/well. The plate was incubated at 37 °C with 5% CO2 for 24 h prior to treatment. Cells were treated with compounds at half-log dilution, ranging from 0.032–100 µM (0.5% DMSO). DMSO (0.5%) and tBHQ (0.01–32 μM) served as solvent and positive controls, respectively. After 8-, 12-, and 16-h incubation, the medium was removed, and cells were washed with 100 µL 1X PBS. Lysis buffer (Signosis, Inc.) was added, and the plate was further incubated for 15 min at room temperature. A 100-µL firefly luciferase substrate (Signosis, Inc.) was added, and luminescence was measured. Nrf2 fold activation of treated cells was assessed relative to the solvent control. The assay was done in two independent experiments in triplicate.

[4] = system: Nrf2-luciferase reporter MCF7 stable cells; test: Cytotoxicity counter-screen on Nrf2-luciferase reporter MCF7 cells; type: cell-based
Method: Absorbance was measured at 570 nm. […] For the cytotoxicity counter-screen, Nrf2-luciferase reporter MCF7 stable cells were grown, seeded, and treated identically with the reporter assay. Cell viability was done using the tetrazolium reagent, as indicated previously.

Nos2 = test: qRT-PCR differential gene expression, Nos2; type: cell-based, murine; details: 10 μM, 12 h, LPS-stimulated RAW 264.7; relative to LPS-stimulated solvent control
Method: as §1

[5] = Direct antioxidant activity, DPPH scavenging assay; details: 30 min, room temperature
Method: The direct antioxidant activity of 1–6 was determined using the 2,2-diphenyl-1-picrylhydrazyl (DPPH) scavenging method. Half-log dilution of 1–6 (0.032 to 100 µM) was prepared in MeOH. Then, 20 μL of 1 mM DPPH was dispensed into each well and incubated for 30 min at room temperature with shaking. Absorbance was measured at 517 nm, and results are presented as % radical scavenging activity (% RSA) relative to the solvent control. Ascorbic acid (0.032–100 µM) and tBHQ (0.032–100 µM) served as positive controls, while 0.5% DMSO served as solvent control. The analysis was done in triplicate.

[6] = Mus musculus, RAW264.7, 24 h, Compound pre-treatment 1 h + LPS (1 µg/mL), 24 h, mean ± SD of two independent experiments, read-out: NO Production (IC50)
[7] = Mus musculus, RAW264.7, 24 h, LPS pre-treatment 1 h + compound, single experiment in triplicate, read-out: NO Production (IC50)
[8] = read-out: Cell Viability (IC50), Compound pre-treatment 1 h + LPS, 24 h, mean ± SD of two independent experiments
[9] = read-out: Cell Viability (IC50), LPS pre-treatment 1 h + compound, single experiment in triplicate
[10] = both timepoints (12 h and 16 h)
[11] = Compound pre-treatment 1 h + LPS (1 µg/mL), 24 h, mean ± SD of two independent experiments, read-out: NO Production (IC50)
[12] = LPS pre-treatment 1 h + compound, single experiment in triplicate, read-out: NO Production (IC50)
[13] = Compound pre-treatment 1 h + LPS, 24 h, mean ± SD of two independent experiments
[14] = LPS pre-treatment 1 h + compound, single experiment in triplicate

Molecule: C[C@@]12CCCc3coc(c31)C(=O)c1cc3c(cc12)C(=O)C=CC3=O [Compound 1, xestoquinone]
upregulation in Nqo1 expression (Nqo1): did not change the Nqo1 expression | downregulation of Il1b expression (Il1b): 2.6 fold | IC50 [1, 6]: 1.2 ± 0.1 µM | IC50 [1, 7]: 0.99 µM | CC50 [2, 8]: 6 ± 3.2 µM | CC50 [2, 9]: 4.9 µM | Nrf2 activation ([3]; 12 h, 1.0 μM, relative to solvent control): at least three | Nrf2 activation ([3]; 12 h, 3.2 μM): at least three | Nrf2 activation ([3]; 12 h posttreatment): modest increase in Nrf2 activation | Nrf2 activation ([3]; 16 h, 1.0 μM): four | Nrf2 activity in reporter assay ([3]; 16 h incubation): significant activation | cytotoxicity to Nrf2-MCF7 cells ([4]; 12 h, 1.0 and 3.2 μM): no cytotoxicity | cytotoxicity to Nrf2-MCF7 cells ([4]; 16 h, 1.0 and 3.2 μM): no significant cytotoxic effects | downregulation of LPS-induced Nos2 expression (Nos2): 2.7 fold

Molecule: C[C@@]12CCCc3coc(c31)C(=O)c1cc3c(cc12)C(=O)C1=C(NCCS1(=O)=O)C3=O [Compound 2, adociaquinone B]
upregulation in Nqo1 expression (Nqo1): did not change the Nqo1 expression | downregulation of Il1b expression (Il1b): 12.1 fold | IC50 ([1]; Mus musculus, RAW264.7, 24 h, read-out: NO Production (IC50), Compound pre-treatment 1 h + LPS (1 µg/mL), 24 h, mean ± SD of two independent experiments): 1.9 ± 0.72 µM | IC50 ([1]; Mus musculus, RAW264.7, 24 h, read-out: NO Production (IC50), LPS pre-treatment 1 h + compound, single experiment in triplicate): 1.5 µM | CC50 [2, 8]: 5.3 to 6.4 µM | CC50 [2, 9]: 4.2 µM | Nrf2 activation [3, 10]: Nrf2 activation was not observed | downregulation of LPS-induced Nos2 expression (Nos2): unaffected

Molecule: CC12CCCc3coc(c31)C(=O)c1cc3c(cc12)C(=O)C=C(CO)C3=O (stereo not shown) [Compound 4, 14-hydroxymethylxestoquinone]
IC50 [1, 6]: 2.5 ± 0.39 µM | IC50 [1, 7]: 1.8 µM | CC50 [2, 8]: 16 ± 0.68 µM | CC50 [2, 9]: 27 µM | decrease in cytotoxicity relative to 1 [2]: more than two | Nrf2 activation ([3]; 12 h posttreatment): modest increase in Nrf2 activation

Molecule: CC12CCCc3coc(c31)C(=O)c1cc3c(cc12)C(=O)C(CO)=CC3=O (stereo not shown) [Compound 5, 15-hydroxymethylxestoquinone]
upregulation in Nqo1 expression (Nqo1): 3.0 fold | downregulation of Il1b expression (Il1b): 2.1 fold | IC50 [1, 6]: 4 ± 2.4 µM | IC50 [1, 7]: 4.7 µM | CC50 [2, 8]: > 32 µM | CC50 [2, 9]: > 32 µM | decrease in cytotoxicity relative to 1 [2]: five | downregulation of LPS-induced Nos2 expression (Nos2): 2.6 fold

IC50 [5]: 13 µM
Molecule: O=C1O[C@H]([C@@H](O)CO)C(O)=C1O [ascorbic acid]

Molecule: C[C@@H]1C[C@H]2[C@@H]3CCC4=CC(=O)C=C[C@]4(C)[C@@]3(F)[C@@H](O)C[C@]2(C)[C@@]1(O)C(=O)CO [dexamethasone, reference compound]
reduction of NO production ([1]; 50 µM): 50% | IC50 [1, 6]: > 0.032 µM | IC50 [1, 7]: > 0.032 µM | CC50 [2, 8]: > 100 µM | CC50 [2, 9]: > 100 µM

IC50 [5]: 11 µM
Molecule: CC(C)(C)c1cc(O)ccc1O [tBHQ, reference compound]
upregulation in Nqo1 expression (Nqo1): 6.3 fold | downregulation of Il1b expression (Il1b): six | reduction of NO production ([1]; 10 µM): 90% | IC50 [1, 11]: 1.2 ± 0.23 µM | IC50 [1, 12]: 0.42 µM | IC50 [2, 13]: > 100 µM | IC50 [2, 14]: > 100 µM | Nrf2 activation ([3]; 12 h, 32 μM): 18 fold | Nrf2 activation ([3]; 16 h, 10 μM): four | Nrf2 activation ([3]; 16 h, 32 μM): 19 fold | cytotoxicity to Nrf2-MCF7 cells ([4]; 12 h, 10 and 32 μM): no observable cytotoxicity | cytotoxicity to Nrf2-MCF7 cells ([4]; 16 h, 10 and 32 μM): non-cytotoxic | downregulation of LPS-induced Nos2 expression (Nos2): 3.8 fold

Molecule: adociaquinone A [Compound 3]
IC50 [1, 11]: 2.1 ± 0.17 µM | IC50 [1, 12]: 1.5 µM | IC50 [2, 13]: 6.4 ± 1.2 µM | IC50 [2, 14]: 5.9 µM | Nrf2 activation [3, 10]: Nrf2 activation was not observed
